Data: PMC11982291 (Communications Biology, 2025)

Legend:
[1] = target: T1, XRN2 (Homo sapiens, UniProt Q9H0D6); assay: SPR; format: binding
T1 sequence (Q9H0D6 1-790): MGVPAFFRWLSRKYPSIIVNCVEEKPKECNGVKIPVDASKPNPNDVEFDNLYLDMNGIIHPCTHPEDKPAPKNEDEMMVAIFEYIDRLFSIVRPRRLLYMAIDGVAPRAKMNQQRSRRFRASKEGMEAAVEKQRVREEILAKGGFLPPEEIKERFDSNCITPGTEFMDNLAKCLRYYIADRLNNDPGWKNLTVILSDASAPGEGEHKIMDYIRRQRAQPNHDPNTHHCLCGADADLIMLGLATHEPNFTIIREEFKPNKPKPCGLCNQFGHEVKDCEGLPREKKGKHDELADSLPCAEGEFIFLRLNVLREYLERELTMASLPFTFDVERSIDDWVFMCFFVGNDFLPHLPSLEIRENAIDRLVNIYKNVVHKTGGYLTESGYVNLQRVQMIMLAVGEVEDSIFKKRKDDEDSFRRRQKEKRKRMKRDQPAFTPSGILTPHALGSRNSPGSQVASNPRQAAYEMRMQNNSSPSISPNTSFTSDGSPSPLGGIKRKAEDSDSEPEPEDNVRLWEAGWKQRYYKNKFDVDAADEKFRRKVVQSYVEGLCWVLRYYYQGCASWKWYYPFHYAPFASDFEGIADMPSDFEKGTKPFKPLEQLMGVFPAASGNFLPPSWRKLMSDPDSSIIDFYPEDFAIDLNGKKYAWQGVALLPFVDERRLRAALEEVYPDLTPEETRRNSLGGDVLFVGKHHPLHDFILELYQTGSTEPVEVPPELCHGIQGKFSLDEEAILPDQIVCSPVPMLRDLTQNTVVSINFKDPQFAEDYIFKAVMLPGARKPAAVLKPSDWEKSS

[2] = target: XRN1 (5’-3’ exoribonuclease 1) (Homo sapiens, UniProt Q8IZH2); assay: SPR; format: binding
Chain of XRN1 (5’-3’ exoribonuclease 1) (Q8IZH2 1-1191): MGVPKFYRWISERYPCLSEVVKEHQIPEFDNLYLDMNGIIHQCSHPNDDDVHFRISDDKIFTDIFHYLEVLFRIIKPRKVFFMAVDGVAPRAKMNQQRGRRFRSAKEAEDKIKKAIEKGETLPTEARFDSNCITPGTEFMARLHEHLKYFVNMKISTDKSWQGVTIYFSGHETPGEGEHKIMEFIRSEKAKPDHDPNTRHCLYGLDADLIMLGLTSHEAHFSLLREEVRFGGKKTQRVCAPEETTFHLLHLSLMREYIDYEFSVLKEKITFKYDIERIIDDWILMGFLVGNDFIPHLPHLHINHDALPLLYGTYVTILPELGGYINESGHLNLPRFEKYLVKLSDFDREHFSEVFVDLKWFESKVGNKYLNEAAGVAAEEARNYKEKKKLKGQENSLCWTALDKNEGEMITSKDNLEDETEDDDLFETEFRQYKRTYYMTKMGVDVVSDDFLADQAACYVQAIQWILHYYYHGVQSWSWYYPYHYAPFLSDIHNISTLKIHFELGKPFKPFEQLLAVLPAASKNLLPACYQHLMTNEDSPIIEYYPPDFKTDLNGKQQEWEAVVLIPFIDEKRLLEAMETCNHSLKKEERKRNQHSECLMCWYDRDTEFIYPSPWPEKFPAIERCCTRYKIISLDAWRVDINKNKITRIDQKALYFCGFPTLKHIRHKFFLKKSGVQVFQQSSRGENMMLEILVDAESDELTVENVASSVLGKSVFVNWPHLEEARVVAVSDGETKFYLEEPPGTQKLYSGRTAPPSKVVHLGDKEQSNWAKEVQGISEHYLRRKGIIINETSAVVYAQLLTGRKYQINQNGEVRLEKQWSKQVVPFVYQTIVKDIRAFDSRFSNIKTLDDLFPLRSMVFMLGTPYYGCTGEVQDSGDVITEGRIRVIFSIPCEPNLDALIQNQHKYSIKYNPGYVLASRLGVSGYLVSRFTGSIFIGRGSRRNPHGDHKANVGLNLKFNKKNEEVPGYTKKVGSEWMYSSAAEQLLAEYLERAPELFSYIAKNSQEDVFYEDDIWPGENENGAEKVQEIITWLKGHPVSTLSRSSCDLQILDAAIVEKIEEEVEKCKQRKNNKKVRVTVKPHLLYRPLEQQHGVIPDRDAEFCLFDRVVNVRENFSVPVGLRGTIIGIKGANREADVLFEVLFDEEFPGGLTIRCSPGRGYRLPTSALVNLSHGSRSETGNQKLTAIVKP

Nc1ncnc2c1ncn2[C@@H]1O[C@H](COP(=O)(O)O)[C@@H](OP(=O)(O)O)[C@H]1O [pAp, adenosine-3’,5’-bisphosphate]
Kd [1]: 14 ± 4 nM
Kd [2]: 12 ± 1 nM
